Data from patent US20070128217A1 (priority 2003, published 2007).

Columns and labels:
[1] = test system: control sera (pooled serum of ten healthy LUMC hospital workers; commercial negative donor pooled serum from the Dutch bloodbank); format: binding, human; parameters: Binding of Control serum LUMC to linear peptides / Binding of Control serum Blood-bank to linear peptides / Binding of Control serum LUMC to looped peptides / Binding of Control Serum Blood-Bank to Looped peptides / Binding of Control serum LUMC to linear peptides of the protein M of SARS-CoV Urbani / Binding of Control serum Blood-bank to linear peptides of the protein M of SARS-CoV Urbani / Binding of Control serum LUMC to looped peptides of the protein M of SARS-CoV Urbani / Binding of Control Serum Blood-Bank to Looped peptides of the protein M of SARS-CoV Urbani: unit not given here
[2] = test system: rabbit serum obtained by immunizing a rabbit with the SARS-CoV strain Frankfurt 1; format: binding; parameters: Binding of a rabbit serum to linear peptides / Binding of a rabbit serum to looped peptides / Rabbit serum linear peptides / Rabbit serum looped peptides / Binding of a rabbit serum to linear peptides of protein N of SARS-CoV Urbani (Rabbit serum linear peptides) / Binding of a rabbit serum to looped/cyclic peptides of protein N of SARS-CoV Urbani (Rabbit serum looped peptides): unit not given here

Sequence | Rabbit serum linear peptides [2] | Rabbit serum looped peptides [2] | Binding of Control Serum Blood-Bank to Looped peptides [1] | Binding of Control serum Blood-bank to linear peptides [1] | Binding of Control serum LUMC to linear peptides [1] | Binding of Control serum LUMC to looped peptides [1] | Binding of a rabbit serum to linear peptides [2] | Binding of a rabbit serum to looped peptides [2] | further results
GGIAIAMACIVGLMW | 0.2 | 0.3 |  |  |  |  |  |  | Binding of Control Serum Blood-Bank to Looped peptides of the protein M of SARS-CoV Urbani [1]: 0.8; Binding of Control serum Blood-bank to linear peptides of the protein M of SARS-CoV Urbani [1]: 0.8; Binding of Control serum LUMC to linear peptides of the protein M of SARS-CoV Urbani [1]: 0.8; Binding of Control serum LUMC to looped peptides of the protein M of SARS-CoV Urbani [1]: 0.9
GRCDIKDLPKEITVA | 0.0 | 0.1 |  |  |  |  |  |  | Binding of Control Serum Blood-Bank to Looped peptides of the protein M of SARS-CoV Urbani [1]: 1.0; Binding of Control serum Blood-bank to linear peptides of the protein M of SARS-CoV Urbani [1]: 0.5; Binding of Control serum LUMC to linear peptides of the protein M of SARS-CoV Urbani [1]: 0.1; Binding of Control serum LUMC to looped peptides of the protein M of SARS-CoV Urbani [1]: 0.9
GVANPAMDPIYDEPT |  |  | 0.5 | 0.4 | 0.3 | 0.6 | 0.1 | 0.6 | 
GYSEDRHSGVKDYVV |  |  | 0.6 | 0.8 | 0.8 | 0.6 | 0.1 | 0.3 | 
HPLGRCDIKDLPKEI | 0.2 | 1.1 |  |  |  |  |  |  | Binding of Control Serum Blood-Bank to Looped peptides of the protein M of SARS-CoV Urbani [1]: 1.0; Binding of Control serum Blood-bank to linear peptides of the protein M of SARS-CoV Urbani [1]: 1.0; Binding of Control serum LUMC to linear peptides of the protein M of SARS-CoV Urbani [1]: 0.7; Binding of Control serum LUMC to looped peptides of the protein M of SARS-CoV Urbani [1]: 0.7
HQNSKKTTKLVVILR |  |  | 0.6 | 0.5 | 0.8 | 0.6 |  |  | Recognition of the peptide by the rabbit serum [2]: recognized
HQTAAFRDVLVVLNK | 0.4 | 0.8 | 0.8 | 0.5 | 0.9 | 0.6 |  |  | 
HTHNYDYCIPYNSVT |  |  | 0.6 | 0.6 | 0.7 | 0.6 | 0.1 | 0.6 | 
HYQECVRGTTVLLKE | 0.5 | 0.5 | 0.9 | 0.8 | 0.7 | 1.0 |  |  | 
IAIAMACIVGLMWLS | 0.1 | 0.3 |  |  |  |  |  |  | Binding of Control Serum Blood-Bank to Looped peptides of the protein M of SARS-CoV Urbani [1]: 0.8; Binding of Control serum Blood-bank to linear peptides of the protein M of SARS-CoV Urbani [1]: 0.5; Binding of Control serum LUMC to linear peptides of the protein M of SARS-CoV Urbani [1]: 0.6; Binding of Control serum LUMC to looped peptides of the protein M of SARS-CoV Urbani [1]: 0.7
IDNASPASTVHATAT |  |  | 0.7 | 0.8 | 0.7 | 0.6 | 0.5 | 0.3 | 
IFNKLVKDPPNVQIH |  |  | 0.6 | 1.1 | 1.0 | 0.6 | 0.1 | 0.6 | 
IGTQVLKTMSLYMAI |  |  | 0.9 | 0.8 | 0.5 | 1.0 | 0.1 | 0.4 | 
IIIMRTFRIAIWNLD | 0.4 | 0.5 |  |  |  |  |  |  | Binding of Control Serum Blood-Bank to Looped peptides of the protein X3 of SARS-CoV Urbani [1]: 0.8; Binding of Control serum Blood-bank to linear peptides of the protein X3 of SARS-CoV Urbani [1]: 0.9; Binding of Control serum LUMC to linear peptides of the protein X3 of SARS-CoV Urbani [1]: 0.9; Binding of Control serum LUMC to looped peptides of the protein X3 of SARS-CoV Urbani [1]: 0.8
IMRTFRIAIWNLDVI | 0.4 | 0.6 |  |  |  |  |  |  | Binding of Control Serum Blood-Bank to Looped peptides of the protein X3 of SARS-CoV Urbani [1]: 0.9; Binding of Control serum Blood-bank to linear peptides of the protein X3 of SARS-CoV Urbani [1]: 0.8; Binding of Control serum LUMC to linear peptides of the protein X3 of SARS-CoV Urbani [1]: 0.8; Binding of Control serum LUMC to looped peptides of the protein X3 of SARS-CoV Urbani [1]: 0.8
INCQDPAGGALIARC | 0.5 | 0.6 | 0.9 | 1.1 | 0.6 | 0.7 |  |  | 
INWVTGGIAIAMACI | 0.5 | 0.4 |  |  |  |  |  |  | Binding of Control Serum Blood-Bank to Looped peptides of the protein M of SARS-CoV Urbani [1]: 0.6; Binding of Control serum Blood-bank to linear peptides of the protein M of SARS-CoV Urbani [1]: 0.8; Binding of Control serum LUMC to linear peptides of the protein M of SARS-CoV Urbani [1]: 0.5; Binding of Control serum LUMC to looped peptides of the protein M of SARS-CoV Urbani [1]: 0.9
ISSIVRQLFKPLTKK | 0.3 | 0.5 |  |  |  |  |  |  | Binding of Control Serum Blood-Bank to Looped peptides of the protein X3 of SARS-CoV Urbani [1]: 0.8; Binding of Control serum Blood-bank to linear peptides of the protein X3 of SARS-CoV Urbani [1]: 0.8; Binding of Control serum LUMC to linear peptides of the protein X3 of SARS-CoV Urbani [1]: 0.9; Binding of Control serum LUMC to looped peptides of the protein X3 of SARS-CoV Urbani [1]: 0.7
IVRQLFKPLTKKNYS | 0.4 | 0.6 |  |  |  |  |  |  | Binding of Control Serum Blood-Bank to Looped peptides of the protein X3 of SARS-CoV Urbani [1]: 0.9; Binding of Control serum Blood-bank to linear peptides of the protein X3 of SARS-CoV Urbani [1]: 0.9; Binding of Control serum LUMC to linear peptides of the protein X3 of SARS-CoV Urbani [1]: 0.8; Binding of Control serum LUMC to looped peptides of the protein X3 of SARS-CoV Urbani [1]: 0.9
KDPPNVQIHTIDGSS |  |  | 1.1 | 0.3 | 0.3 | 1.1 | 0.1 | 0.9 | 
KKTTKLVVILRIGTQ |  |  | 0.6 | 0.4 | 0.5 | 0.8 |  |  | Recognition of the peptide by the rabbit serum [2]: recognized
KLKEDYQIGGYSEDR |  |  | 0.5 | 0.5 | 0.5 | 0.6 | 0.1 | 0.5 | 
KLNTDHAGSNDNIAL | 0.4 | 0.3 |  |  |  |  |  |  | Binding of Control Serum Blood-Bank to Looped peptides of the protein M of SARS-CoV Urbani [1]: 1.0; Binding of Control serum Blood-bank to linear peptides of the protein M of SARS-CoV Urbani [1]: 0.9; Binding of Control serum LUMC to linear peptides of the protein M of SARS-CoV Urbani [1]: 0.7; Binding of Control serum LUMC to looped peptides of the protein M of SARS-CoV Urbani [1]: 0.9
KLVKDPPNVQIHTID |  |  | 0.4 | 0.4 | 0.5 | 0.4 | 0.1 | 0.4 | 
KNYSELDDEEPMELD | 0.3 | 0.2 |  |  |  |  |  |  | Binding of Control Serum Blood-Bank to Looped peptides of the protein X3 of SARS-CoV Urbani [1]: 0.6; Binding of Control serum Blood-bank to linear peptides of the protein X3 of SARS-CoV Urbani [1]: 0.7; Binding of Control serum LUMC to linear peptides of the protein X3 of SARS-CoV Urbani [1]: 0.6; Binding of Control serum LUMC to looped peptides of the protein X3 of SARS-CoV Urbani [1]: 0.8
KPLTKKNYSELDDEE | 0.4 | 0.5 |  |  |  |  |  |  | Binding of Control Serum Blood-Bank to Looped peptides of the protein X3 of SARS-CoV Urbani [1]: 0.8; Binding of Control serum Blood-bank to linear peptides of the protein X3 of SARS-CoV Urbani [1]: 0.7; Binding of Control serum LUMC to linear peptides of the protein X3 of SARS-CoV Urbani [1]: 0.8; Binding of Control serum LUMC to looped peptides of the protein X3 of SARS-CoV Urbani [1]: 0.7
KPTVYVYSRVKNLNS |  |  | 0.9 | 0.7 | 0.8 | 0.9 | 0.6 | 0.9 | 
KTMSLYMAISPKFTT |  |  | 0.7 | 0.7 | 0.6 | 1.0 | 0.3 | 0.8 | 
KTTKLVVILRIGTQV |  |  | 0.7 | 0.4 | 0.5 | 0.7 |  |  | Recognition of the peptide by the rabbit serum [2]: recognized
LCAYCCNIVNVSLVK |  |  | 0.8 | 1.1 | 0.8 | 0.7 | 0.7 | 0.4 | 
